Experimental data reported in patent US20240270762A1, “PENICILLIN-BINDING PROTEIN INHIBITORS” (priority 2021, published 2024).
Converted amounts (≈) assume the structure as drawn.

How the values were obtained:
[1] = test system: P. aeruginosa CDC-0054; experiment: microbe, parasite or virus in culture; format: cell-based; conditions: Pseudomonas aeruginosa, CDC0054, read-out: Minimum inhibitory concentration, P. aeruginosa CDC-0054
[2] = test system: A. baumannii 1258916; experiment: microbe, parasite or virus in culture; format: cell-based, Acinetobacter baumannii; conditions: Acinetobacter baumannii, 1258916, read-out: MIC, A. baumannii 1258916
[3] = test system: B. thailandensis ATCC 700388; experiment: microbe, parasite or virus in culture; format: cell-based; conditions: Burkholderia thailandensis, ATCC700388, read-out: Minimum inhibitory concentration (MIC), B. thailandensis ATCC 700388
[4] = test system: P. aeruginosa (ΔmexAB-oprM); experiment: Broth microdilution MIC in iron-depleted CAMHB (IDM); format: cell-based; conditions: Pseudomonas aeruginosa; iron-depleted CAMHB (IDM); […]; read-out: Minimum inhibitory concentration, P. aeruginosa ΔmexAB-oprM
[5] = test system: A. baumannii ATCC 17978; experiment: microbe, parasite or virus in culture; format: cell-based; conditions: Acinetobacter baumannii, ATCC17978, read-out: MIC, A. baumannii ATCC 17978
[6] = molecular target: T1, A. baumannii PBP1a (Acinetobacter baumannii, UniProt A0ABX6CK30); experiment: Bocillin-FL competition binding via gel filtration, A. baumannii PBP1a; conditions: competition binding assay using Bocillin-FL via gel filtration; read-out: A. baumannii PBP1a Potency
T1 sequence (A0ABX6CK30 1-851): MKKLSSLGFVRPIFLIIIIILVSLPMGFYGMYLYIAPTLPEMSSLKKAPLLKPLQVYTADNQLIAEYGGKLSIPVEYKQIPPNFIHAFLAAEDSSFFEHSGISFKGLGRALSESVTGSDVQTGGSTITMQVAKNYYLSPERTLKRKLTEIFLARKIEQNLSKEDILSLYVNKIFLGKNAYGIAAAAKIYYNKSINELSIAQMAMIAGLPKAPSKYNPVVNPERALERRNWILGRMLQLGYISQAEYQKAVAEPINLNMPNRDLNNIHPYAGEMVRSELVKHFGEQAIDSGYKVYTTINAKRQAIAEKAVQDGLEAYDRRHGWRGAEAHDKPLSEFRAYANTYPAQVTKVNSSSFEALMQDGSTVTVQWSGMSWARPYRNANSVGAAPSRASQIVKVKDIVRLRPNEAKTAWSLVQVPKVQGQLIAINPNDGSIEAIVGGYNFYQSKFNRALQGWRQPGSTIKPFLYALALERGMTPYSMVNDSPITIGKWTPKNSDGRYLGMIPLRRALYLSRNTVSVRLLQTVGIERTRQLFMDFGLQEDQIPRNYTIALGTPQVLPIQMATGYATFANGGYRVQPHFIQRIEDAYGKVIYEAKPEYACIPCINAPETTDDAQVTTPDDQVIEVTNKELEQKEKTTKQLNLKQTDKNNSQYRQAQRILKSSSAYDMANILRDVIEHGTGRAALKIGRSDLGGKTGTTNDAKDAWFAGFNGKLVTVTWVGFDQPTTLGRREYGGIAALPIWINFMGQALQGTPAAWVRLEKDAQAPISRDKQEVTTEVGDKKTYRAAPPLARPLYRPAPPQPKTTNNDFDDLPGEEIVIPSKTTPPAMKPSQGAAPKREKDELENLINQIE
How it was run: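 Enzyme was pre-incubated with rising inhibitor concentrations, then Bocillin-FL was added and incubated 15 minutes more. Bound probe was separated by gel filtration and fluorescence read. EC50 came from fitting fraction of PBP labelled versus inhibitor concentration to a Hill equation with ymin, ymax and n.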

[7] = test system: A. baumannii CDC-0036; experiment: microbe, parasite or virus in culture; format: cell-based; conditions: Acinetobacter baumannii, CDC0036, read-out: MIC, A. baumannii CDC-0036

| Compound | MIC [1] | MIC [2] | MIC [3] | MIC [4] | MIC [5] | EC50 [6] | MIC [7] |
| --- | --- | --- | --- | --- | --- | --- | --- |
| O=C(NCCCN1CCN(C(=O)NC(C(=O)N[C@H]2Cc3ccc(F)c(C(=O)O)c3OB2O)c2cc(F)c(O)c(O)c2Cl)C(=O)C1=O)c1ccncc1Cl (stereo partly drawn) [Example 295, (3R)-3-(2-(2-chloro-5-fluoro-3,4-dihydroxyphenyl)-2-(4-(3-(3-chloroisonicotinamido)propyl)-2,3-dioxopiperazine-1-carboxamido)acetamido)-7-fluoro-2-hydroxy-3,4-dihydro-2H-benzo[e][1,2]oxaborinine-8-carboxylic acid] | 2 to 4 µg/mL (≈ 2.57 to 5.13 µM) | < 1 µg/mL | 2 to 4 µg/mL (≈ 2.57 to 5.13 µM) | < 1 µg/mL | < 1 µg/mL | 10 to 50 µM | 2 to 4 µg/mL (≈ 2.57 to 5.13 µM) |
| O=C(O)c1c(F)ccc2c1OB(O)[C@@H](NC(=O)C(NC(=O)N1CCN(C3CCN(C(=O)Nc4cccc(O)c4)CC3)C(=O)C1=O)c1cc(F)c(O)c(O)c1Cl)C2 (stereo partly drawn) [Example 424, (3R)-3-(2-(2-chloro-5-fluoro-3,4-dihydroxyphenyl)-2-(4-(1-((3-hydroxyphenyl)carbamoyl)piperidin-4-yl)-2,3-dioxopiperazine-1-carboxamido)acetamido)-7-fluoro-2-hydroxy-3,4-dihydro-2H-benzo[e][1,2]oxaborinine-8-carboxylic acid] | < 1 µg/mL | < 1 µg/mL | < 1 µg/mL | < 1 µg/mL | < 1 µg/mL | < 10 µM | < 1 µg/mL |
| O=C(O)c1c(F)ccc2c1OB(O)[C@@H](NC(=O)C(NC(=O)N1CCN(C3CCN(S(=O)(=O)c4cccc(O)c4)CC3)C(=O)C1=O)c1cc(F)c(O)c(O)c1Cl)C2 (stereo partly drawn) [Example 428, (3R)-3-(2-(2-chloro-5-fluoro-3,4-dihydroxyphenyl)-2-(4-(1-((3-hydroxyphenyl)sulfonyl)piperidin-4-yl)-2,3-dioxopiperazine-1-carboxamido)acetamido)-7-fluoro-2-hydroxy-3,4-dihydro-2H-benzo[e][1,2]oxaborinine-8-carboxylic acid] | < 1 µg/mL | < 1 µg/mL | > 128 µg/mL | < 1 µg/mL | < 1 µg/mL | < 10 µM | 2 to 4 µg/mL (≈ 2.43 to 4.87 µM) |
| O=C(NCCCN1CCN(C(=O)N[C@@H](C(=O)N[C@H]2Cc3ccc(F)c(C(=O)O)c3OB2O)c2cc(F)c(O)c(O)c2Cl)C(=O)C1=O)c1ccc(O)cc1Cl (single isomer, unassigned) [Example 471] | < 1 µg/mL | < 1 µg/mL | < 1 µg/mL | < 1 µg/mL | < 1 µg/mL | < 10 µM | 2 to 4 µg/mL (≈ 2.52 to 5.04 µM) |
| O=C(NCCCN1CCN(C(=O)N[C@@H](C(=O)N[C@H]2Cc3ccc(F)c(C(=O)O)c3OB2O)c2cc(F)c(O)c(O)c2Cl)C(=O)C1=O)c1cccc(O)c1Cl [Example 303, (R)-3-((R)-2-(4-(3-(2-chloro-3-hydroxybenzamido)propyl)-2,3-dioxopiperazine-1-carboxamido)-2-(2-chloro-5-fluoro-3,4-dihydroxyphenyl)acetamido)-7-fluoro-2-hydroxy-3,4-dihydro-2H-benzo[e][1,2]oxaborinine-8-carboxylic acid] | < 1 µg/mL | < 1 µg/mL | < 1 µg/mL | < 1 µg/mL | < 1 µg/mL | < 10 µM | < 1 µg/mL |
| O=C(NCCCN1CCN(C(=O)N[C@@H](C(=O)N[C@H]2Cc3ccc(F)c(C(=O)O)c3OB2O)c2cc(F)c(O)c(O)c2Cl)C(=O)C1=O)c1cc(F)nc(F)c1 (racemic) [Example 401] | < 1 µg/mL | < 1 µg/mL | > 128 µg/mL | < 1 µg/mL | < 1 µg/mL | < 10 µM | 2 to 4 µg/mL (≈ 2.56 to 5.12 µM) |
| O=C(NCCCN1CCN(C(=O)N[C@@H](C(=O)N[C@H]2Cc3ccc(F)c(C(=O)O)c3OB2O)c2cc(F)c(O)c(O)c2Cl)C(=O)C1=O)c1cc(F)c(O)cc1F (single isomer, unassigned) [Example 473] | < 1 µg/mL | 2 to 4 µg/mL (≈ 2.51 to 5.03 µM) | < 1 µg/mL | < 1 µg/mL | < 1 µg/mL | < 10 µM | 2 to 4 µg/mL (≈ 2.51 to 5.03 µM) |
| O=C(O)c1c(F)ccc2c1OB(O)[C@@H](NC(=O)C(NC(=O)N1CCN(C3CCN(C(=O)c4cccc(O)c4)CC3)C(=O)C1=O)c1cc(F)c(O)c(O)c1Cl)C2 (stereo partly drawn) [Example 293, (3R)-3-(2-(2-chloro-5-fluoro-3,4-dihydroxyphenyl)-2-(4-(1-(3-hydroxybenzoyl)piperidin-4-yl)-2,3-dioxopiperazine-1-carboxamido)acetamido)-7-fluoro-2-hydroxy-3,4-dihydro-2H-benzo[e][1,2]oxaborinine-8-carboxylic acid] | < 1 µg/mL | < 1 µg/mL | < 1 µg/mL | < 1 µg/mL | < 1 µg/mL | 10 to 50 µM | < 1 µg/mL |
| O=C(O)c1c(F)ccc2c1OB(O)[C@@H](NC(=O)C(NC(=O)N1CCN(CC3CCN(C(=O)Nc4cccc(O)c4)CC3)C(=O)C1=O)c1cc(F)c(O)c(O)c1Cl)C2 (stereo partly drawn) [Example 477, (3R)-3-(2-(2-chloro-5-fluoro-3,4-dihydroxyphenyl)-2-(4-((1-((3-hydroxyphenyl)carbamoyl)piperidin-4-yl)methyl)-2,3-dioxopiperazine-1-carboxamido)acetamido)-7-fluoro-2-hydroxy-3,4-dihydro-2H-benzo[e][1,2]oxaborinine-8-carboxylic acid] | < 1 µg/mL | < 1 µg/mL | < 1 µg/mL | < 1 µg/mL | < 1 µg/mL | 10 to 50 µM | 2 to 4 µg/mL (≈ 2.45 to 4.91 µM) |
| O=C(NCCCN1CCN(C(=O)NC(C(=O)N[C@H]2Cc3ccc(F)c(C(=O)O)c3OB2O)c2cc(F)c(O)c(O)c2Cl)C(=O)C1=O)c1c(F)ccc(O)c1Cl (stereo partly drawn) [Example 414, (3R)-3-(2-(2-chloro-5-fluoro-3,4-dihydroxyphenyl)-2-(4-(3-(2-chloro-6-fluoro-3-hydroxybenzamido)propyl)-2,3-dioxopiperazine-1-carboxamido)acetamido)-7-fluoro-2-hydroxy-3,4-dihydro-2H-benzo[e][1,2]oxaborinine-8-carboxylic acid] | < 1 µg/mL | 2 to 4 µg/mL (≈ 2.46 to 4.92 µM) | 2 to 4 µg/mL (≈ 2.46 to 4.92 µM) | < 1 µg/mL | < 1 µg/mL | < 10 µM | 2 to 4 µg/mL (≈ 2.46 to 4.92 µM) |
| O=C(NCCCN1CCN(C(=O)NC(C(=O)N[C@H]2Cc3ccc(F)c(C(=O)O)c3OB2O)c2cc(F)c(O)c(O)c2Cl)C(=O)C1=O)c1ccc(F)c(O)c1 (stereo partly drawn) [Example 409, (3R)-3-(2-(2-chloro-5-fluoro-3,4-dihydroxyphenyl)-2-(4-(3-(4-fluoro-3-hydroxybenzamido)propyl)-2,3-dioxopiperazine-1-carboxamido)acetamido)-7-fluoro-2-hydroxy-3,4-dihydro-2H-benzo[e][1,2]oxaborinine-8-carboxylic acid] | < 1 µg/mL | 2 to 4 µg/mL (≈ 2.57 to 5.14 µM) | 2 to 4 µg/mL (≈ 2.57 to 5.14 µM) | < 1 µg/mL | < 1 µg/mL | < 10 µM | 2 to 4 µg/mL (≈ 2.57 to 5.14 µM) |
| O=C(NCCCN1CCN(C(=O)NC(C(=O)N[C@H]2Cc3ccc(F)c(C(=O)O)c3OB2O)c2cc(F)c(O)c(O)c2Cl)C(=O)C1=O)c1ccc(O)c(F)c1F (stereo partly drawn) [Example 306, (3R)-3-(2-(2-chloro-5-fluoro-3,4-dihydroxyphenyl)-2-(4-(3-(2,3-difluoro-4-hydroxybenzamido)propyl)-2,3-dioxopiperazine-1-carboxamido)acetamido)-7-fluoro-2-hydroxy-3,4-dihydro-2H-benzo[e][1,2]oxaborinine-8-carboxylic acid] | 2 to 4 µg/mL (≈ 2.51 to 5.03 µM) | < 1 µg/mL | 2 to 4 µg/mL (≈ 2.51 to 5.03 µM) | < 1 µg/mL | < 1 µg/mL | < 10 µM | 2 to 4 µg/mL (≈ 2.51 to 5.03 µM) |
